{
  "source": "patent US20260249027A1",
  "about": "“METERED DOSE INHALERS AND HIGH-DOSE SUSPENSIONS” (Kindeva Drug Delivery L.P., priority 2023, published 2026)",
  "assay_type_in_all_cases": "physicochemical",
  "key": {"[1]": {"assay": "Aerodynamic particle size measurement of sodium cromoglycate pMDI suspensions (Next Generation impactor)", "excerpt": "(§1) In general, aerosols with mass median aerodynamic diameters (MMAD) of at least 1 μm but less than 5 μm in size are suitable for effective deep lung deposition for therapeutic effect. Herein, fine particle fraction (FPF) is defined as the percentage of the ex-actuator delivered API having a MMAD of less than 5 μm when tested in vitro. Herein, “ex-actuator” delivered dose is used to describe the amount of API delivered past the actuator of a pMDI. Therefore, an aerosol with a high FPF is typically suitable for deep lung deposition.\n(§2) In the following examples, dose consistency was determined by in vitro measurement of single actuation dose content at start, middle and end of pMDI unit life in line with U.S. Pharmacopeia (USP)<601>, using a flow rate of 28.3 L/min and apparatus A. Aerodynamic particle size distribution of the pMDI suspension aerosols was measured at start of unit life in line with U.S. Pharmacopeia (USP)<601> using a Next Generation impactor without pre-separator (apparatus 6) and a flow rate of 30 L/min.\n(§3) A first set of suspensions included no ethanol. A second set of suspensions included 2% ethanol by weight.\n(§4) In total, ten suspension pMDI formulations were prepared in triplicate with sufficient fill weight to provide 60 actuations. Each suspension was filled into Kindeva FEP coated canisters, crimped with a Kindeva 50-μL valve. Each pMDI unit was sonicated for at least 10 minutes to disperse the suspended drug and tested with a Kindeva actuator having an exit orifice diameter (EOD) of 0.4 mm\n(§5) The mass median aerodynamic diameter (MMAD) and fine particle fraction (FPF) of each pMDI unit were measured by Next Generation cascade impaction (N=3) for each pMDI suspension."}, "[2]": {"assay": "Through life dose consistency of sodium cromoglycate pMDI suspensions (USP <601>, apparatus A)", "experimental": "as §2, §3\nas §4, with “mm.” for “mm”"}, "[3]": {"assay": "Aerodynamic particle size measurement of salbutamol sulfate pMDI suspensions (Next Generation impactor)", "excerpt": "as §1, §2\nas §4, with “six” for “ten”, “mm.” for “mm”\nas §5"}, "[4]": {"conditions": "nominal ex-valve 0.5 mg/act, HFA-152a"}, "[5]": {"conditions": "nominal ex-valve 0.5 mg/act, HFA-152a/2% EtOH (w/w)"}, "[6]": {"conditions": "nominal ex-valve 0.5 mg/act, HFO-1234ze(E)"}, "[7]": {"conditions": "nominal ex-valve 0.5 mg/act, HFO-1234ze(E)/2% EtOH (w/w)"}, "[8]": {"conditions": "nominal ex-valve 1.0 mg/act, HFA-152a"}, "[9]": {"conditions": "nominal ex-valve 1.0 mg/act, HFA-152a/2% EtOH (w/w)"}, "[10]": {"conditions": "nominal ex-valve 1.0 mg/act, HFO-1234ze(E)"}, "[11]": {"conditions": "nominal ex-valve 1.0 mg/act, HFO-1234ze(E)/2% EtOH (w/w)"}, "[12]": {"conditions": "nominal ex-valve 2.0 mg/act, HFA-152a"}, "[13]": {"conditions": "nominal ex-valve 2.0 mg/act, HFO-1234ze(E)"}},
  "data": [
    {"molecule": "O=C(O)c1cc(=O)c2c(OCC(O)COc3cccc4oc(C(=O)O)cc(=O)c34)cccc2o1", "note": "[sodium cromoglycate]", "values": [
      {"measurement": "MMAD values of aerosols, suitability", "setting": "[1]; HFA-152a or HFO-1234ze(E), with and without ethanol, in-vitro", "result": "in an appropriate respirable range"},
      {"measurement": "FPF and MMAD without ethanol compared with corresponding suspensions with 2% ethanol by weight", "setting": "[1]; HFA-152a or HFO-1234ze(E), all nominal doses", "result": "consistently produced greater FPFs and smaller MMADs"},
      {"measurement": "Mean FPF", "setting": "[1]; [4]", "result": 33.0, "unit": "%"},
      {"measurement": "Mean MMAD", "setting": "[1]; [4]", "result": 3.59, "unit": "μm"},
      {"measurement": "Mean FPF", "setting": "[1]; [5]", "result": 29.5, "unit": "%"},
      {"measurement": "Mean MMAD", "setting": "[1]; [5]", "result": 3.92, "unit": "μm"},
      {"measurement": "Mean FPF", "setting": "[1]; [6]", "result": 41.3, "unit": "%"},
      {"measurement": "Mean MMAD", "setting": "[1]; [6]", "result": 3.41, "unit": "μm"},
      {"measurement": "Mean FPF", "setting": "[1]; [7]", "result": 34.1, "unit": "%"},
      {"measurement": "Mean MMAD", "setting": "[1]; [7]", "result": 3.77, "unit": "μm"},
      {"measurement": "Mean FPF", "setting": "[1]; [8]", "result": 28.2, "unit": "%"},
      {"measurement": "Mean MMAD", "setting": "[1]; [8]", "result": 3.85, "unit": "μm"},
      {"measurement": "Mean FPF", "setting": "[1]; [9]", "result": 25.2, "unit": "%"},
      {"measurement": "Mean MMAD", "setting": "[1]; [9]", "result": 4.38, "unit": "μm"},
      {"measurement": "Mean FPF", "setting": "[1]; [10]", "result": 34.7, "unit": "%"},
      {"measurement": "Mean MMAD", "setting": "[1]; [10]", "result": 3.72, "unit": "μm"},
      {"measurement": "Mean FPF", "setting": "[1]; [11]", "result": 30.9, "unit": "%"},
      {"measurement": "Mean MMAD", "setting": "[1]; [11]", "result": 4.13, "unit": "μm"},
      {"measurement": "Mean FPF", "setting": "[1]; [12]", "result": 24.7, "unit": "%"},
      {"measurement": "Mean MMAD", "setting": "[1]; [12]", "result": 4.39, "unit": "μm"},
      {"measurement": "Mean FPF", "setting": "[1]; [13]", "result": 30.7, "unit": "%"},
      {"measurement": "Mean MMAD", "setting": "[1]; [13]", "result": 4.23, "unit": "μm"},
      {"measurement": "FPF and MMAD in HFO-1234ze(E) compared with corresponding suspensions in HFA-152a", "setting": "[1]; with or without ethanol", "result": "consistently produced greater FPFs and generally smaller MMADs"},
      {"measurement": "effect of addition of ethanol on through unit life ex-actuator delivered dose consistency", "setting": "[2]; 2% ethanol by weight, HFA-152a or HFO-1234ze(E)", "result": "did not always substantially improve"},
      {"measurement": "through unit life ex-actuator delivered dose consistency", "setting": "[2]; HFA-152a or HFO-1234ze(E) with and without 2% ethanol by weight", "result": "relatively consistent"},
      {"measurement": "MoL mean delivered dose", "setting": "[2]; [4]", "result": 363.8, "unit": "μg/act"},
      {"measurement": "SoL mean delivered dose", "setting": "[2]; [4]", "result": 611.8, "unit": "μg/act"},
      {"measurement": "TL mean delivered dose", "setting": "[2]; [4]", "result": 427.8, "unit": "μg/act"},
      {"measurement": "EoL mean delivered dose", "setting": "[2]; [5]", "result": 313.6, "unit": "μg/act"},
      {"measurement": "MoL mean delivered dose", "setting": "[2]; [5]", "result": 331.6, "unit": "μg/act"},
      {"measurement": "SoL mean delivered dose", "setting": "[2]; [5]", "result": 675.8, "unit": "μg/act"},
      {"measurement": "TL mean delivered dose", "setting": "[2]; [5]", "result": 440.3, "unit": "μg/act"},
      {"measurement": "EoL mean delivered dose", "setting": "[2]; [6]", "result": 158.7, "unit": "μg/act"},
      {"measurement": "MoL mean delivered dose", "setting": "[2]; [6]", "result": 354.1, "unit": "μg/act"},
      {"measurement": "SoL mean delivered dose", "setting": "[2]; [6]", "result": 419.4, "unit": "μg/act"},
      {"measurement": "TL mean delivered dose", "setting": "[2]; [6]", "result": 310.7, "unit": "μg/act"},
      {"measurement": "EoL mean delivered dose", "setting": "[2]; [7]", "result": 315.4, "unit": "μg/act"},
      {"measurement": "MoL mean delivered dose", "setting": "[2]; [7]", "result": 332.8, "unit": "μg/act"},
      {"measurement": "SoL mean delivered dose", "setting": "[2]; [7]", "result": 940.2, "unit": "μg/act"},
      {"measurement": "TL mean delivered dose", "setting": "[2]; [7]", "result": 529.5, "unit": "μg/act"},
      {"measurement": "EoL mean delivered dose", "setting": "[2]; [8]", "result": 618.4, "unit": "μg/act"},
      {"measurement": "MoL mean delivered dose", "setting": "[2]; [8]", "result": 931.3, "unit": "μg/act"},
      {"measurement": "SoL mean delivered dose", "setting": "[2]; [8]", "result": 950.3, "unit": "μg/act"},
      {"measurement": "TL mean delivered dose", "setting": "[2]; [8]", "result": 833.3, "unit": "μg/act"},
      {"measurement": "EoL mean delivered dose", "setting": "[2]; [9]", "result": 847.0, "unit": "μg/act"},
      {"measurement": "MoL mean delivered dose", "setting": "[2]; [9]", "result": 906.3, "unit": "μg/act"},
      {"measurement": "SoL mean delivered dose", "setting": "[2]; [9]", "result": 1027.9, "unit": "μg/act"},
      {"measurement": "TL mean delivered dose", "setting": "[2]; [9]", "result": 927.0, "unit": "μg/act"},
      {"measurement": "EoL mean delivered dose", "setting": "[2]; [10]", "result": 695.5, "unit": "μg/act"},
      {"measurement": "MoL mean delivered dose", "setting": "[2]; [10]", "result": 784.8, "unit": "μg/act"},
      {"measurement": "SoL mean delivered dose", "setting": "[2]; [10]", "result": 967.3, "unit": "μg/act"},
      {"measurement": "TL mean delivered dose", "setting": "[2]; [10]", "result": 815.9, "unit": "μg/act"},
      {"measurement": "EoL mean delivered dose", "setting": "[2]; [11]", "result": 735.1, "unit": "μg/act"},
      {"measurement": "MoL mean delivered dose", "setting": "[2]; [11]", "result": 917.0, "unit": "μg/act"},
      {"measurement": "SoL mean delivered dose", "setting": "[2]; [11]", "result": 876.4, "unit": "μg/act"},
      {"measurement": "TL mean delivered dose", "setting": "[2]; [11]", "result": 842.9, "unit": "μg/act"},
      {"measurement": "EoL mean delivered dose", "setting": "[2]; [12]", "result": 1694.4, "unit": "μg/act"},
      {"measurement": "MoL mean delivered dose", "setting": "[2]; [12]", "result": 1590.1, "unit": "μg/act"},
      {"measurement": "SoL mean delivered dose", "setting": "[2]; [12]", "result": 1782.4, "unit": "μg/act"},
      {"measurement": "TL mean delivered dose", "setting": "[2]; [12]", "result": 1689.0, "unit": "μg/act"},
      {"measurement": "EoL mean delivered dose", "setting": "[2]; [13]", "result": 119.8, "unit": "μg/act"},
      {"measurement": "MoL mean delivered dose", "setting": "[2]; [13]", "result": 879.1, "unit": "μg/act"},
      {"measurement": "SoL mean delivered dose", "setting": "[2]; [13]", "result": 2009.3, "unit": "μg/act"},
      {"measurement": "TL mean delivered dose", "setting": "[2]; [13]", "result": 1255.0, "unit": "μg/act"}
    ]},
    {"molecule": "salbutamol sulfate", "values": [
      {"measurement": "MMAD values of aerosols, suitability", "setting": "[3]; HFA-152a or HFO-1234ze(E), in-vitro", "result": "in an appropriate respirable range"},
      {"measurement": "FPF and MMAD in HFO-1234ze(E) compared with corresponding suspensions in HFA-152a", "setting": "[3]; no ethanol", "result": "consistently produced greater FPFs and smaller MMADs"},
      {"measurement": "Mean FPF", "setting": "[3]; [4]", "result": 45.6, "unit": "%"},
      {"measurement": "Mean MMAD", "setting": "[3]; [4]", "result": 2.98, "unit": "μm"},
      {"measurement": "Mean FPF", "setting": "[3]; [6]", "result": 57.0, "unit": "%"},
      {"measurement": "Mean MMAD", "setting": "[3]; [6]", "result": 2.98, "unit": "μm"},
      {"measurement": "Mean FPF", "setting": "[3]; [8]", "result": 40.8, "unit": "%"},
      {"measurement": "Mean MMAD", "setting": "[3]; [8]", "result": 3.30, "unit": "μm"},
      {"measurement": "Mean FPF", "setting": "[3]; [10]", "result": 52.4, "unit": "%"},
      {"measurement": "Mean MMAD", "setting": "[3]; [10]", "result": 3.12, "unit": "μm"},
      {"measurement": "Mean FPF", "setting": "[3]; [12]", "result": 30.3, "unit": "%"},
      {"measurement": "Mean MMAD", "setting": "[3]; [12]", "result": 3.92, "unit": "μm"},
      {"measurement": "Mean FPF", "setting": "[3]; [13]", "result": 36.4, "unit": "%"},
      {"measurement": "Mean MMAD", "setting": "[3]; [13]", "result": 3.67, "unit": "μm"}
    ]}
  ]
}
